Measurements from publication PMC6071684, “Defining the hydrophobic interactions that drive competence stimulating peptide (CSP)-ComD binding in Streptococcus pneumoniae” (Beilstein Journal of Organic Chemistry, 2018).
Where a SMILES comes first, the peptide text is derived from it. [ ]: non-standard residue; d: D form. Phg = N[C@H](C(=O)O)c1ccccc1; Nle = CCCC[C@H](N)C(=O)O; Nva = CCC[C@H](N)C(=O)O

Assays:
[1] = target: ComD1 receptor (Streptococcus pneumoniae serotype 2, UniProt A0A0H2ZM50); experiment: cell-based
Protocol: (§1) To assess QS modulation, we utilized the β-gal reporter strains, constructed by Lau and co-worker. In these strains the lacZ gene is under the control of QS (pcomX). Thus, upon QS activation, ComE will bind pcomX and transcribe lacZ (in addition to upregulation of ComX). ComD modulation can therefore be quantified by measuring β-gal activity. The peptides were first screened for their ability to activate/inhibit the ComD1 and ComD2 receptors at high concentration (10 µM).
(§2) To examine the ability of the synthesized CSP analogs to modulate the ComD receptors, and thus the QS circuit in S. pneumoniae, β-galactosidase assays were performed using D39pcomX::lacZ (group I) and TIGR4pcomX::lacZ (group II) reporter strains as described in [19].
(§3) Bacterial growth conditions. Bacteria from a freezer stock were grown as described in [19]. Briefly, the bacteria were streaked into a THY agar plate supplemented with 5% donor horse serum and chloramphenicol at a final concentration of 4 µg/mL. The plate was incubated for 8 h in a CO2 incubator (37 °C with 5% CO2). Fresh colonies (single colony for D39pcomX::lacZ; multiple colonies for TIGR4pcomX::lacZ) were picked into sterilized cultural tubes containing 5 mL of THY broth supplemented with chloramphenicol at a final concentration of 4 µg/mL and the cultures were incubated in a CO2 incubator overnight (15 h). Overnight cultures were then diluted (1:50 for D39pcomX::lacZ; 1:10 for TIGR4pcomX::lacZ) with THY and the resulting solution was incubated in a CO2 incubator for 3–4 hours, until the bacteria reached early exponential stage (0.30–0.35 for D39pcomX::lacZ; 0.20–0.25 for TIGR4pcomX::lacZ) as determined by using a plate reader.
(§4) β-Galactosidase assay. Activation assays. […] Briefly, an initial activation screening was performed at high concentration (10 µM) for all CSP analogs. 2 µL of 1 mM solution of CSP analogs in dimethyl sulfoxide (DMSO) were added in triplicate to a clear 96-well microtiter plate. […] 2 µL of DMSO was added in triplicate and served as the negative control for both groups. Then, 198 µL of bacterial culture was added to each well containing CSP and analogs, the plate was incubated at 37 °C for 30 minutes, and the OD600nm was measured. In order to measure the β-galactosidase activity in the pneumococcal culture, the cells were lysed by incubating the culture for 30 minutes at 37 °C with 20 µL of 0.1% Triton X-100. In a new plate, 100 µL of Z-buffer solution (60.2 mM Na2HPO4, 45.8 mM NaH2PO4, 10 mM KCl, and 1.0 mM MgSO4 in 18 MΩ H2O; pH was adjusted to 7.0 and the buffer was sterilized before use) containing 2-nitrophenyl-β-D-galactopyranoside (ONPG) at a final concentration of 0.4 mg/mL was added, followed by 100 µL of lysate, and the plate was incubated for 3 hours at 37 °C. The reaction was stopped by adding 50 µL of 1 M sodium carbonate solution, and the OD420nm and OD550nm were measured using a plate reader. […] For calculation of Miller units, please see data analysis below.
(§5) Analysis of activation/inhibition data. Miller units were calculated using the following formula: […]
(§6) Abs420 is the absorbance of ortho-nitrophenol (ONP). Abs550 is the scatter from cell debris, which, when multiplied by 1.75 approximates the scatter observed at 420 nm. t is the duration of incubation with ONPG in minutes, v is volume of lysate in milliliters, and Abs600 reflects cell density.

[2] = target: ComD2 receptor (Streptococcus pneumoniae serotype 4, UniProt A0A0H2US84); experiment: cell-based
Protocol: as §1, §2, §3, §4, §5, §6

[3] = target: ComD1 receptor (S. pneumoniae (endogenous in D39pcomX::lacZ))

Sequence of ComD2 receptor (A0A0H2US84 entry or part of it): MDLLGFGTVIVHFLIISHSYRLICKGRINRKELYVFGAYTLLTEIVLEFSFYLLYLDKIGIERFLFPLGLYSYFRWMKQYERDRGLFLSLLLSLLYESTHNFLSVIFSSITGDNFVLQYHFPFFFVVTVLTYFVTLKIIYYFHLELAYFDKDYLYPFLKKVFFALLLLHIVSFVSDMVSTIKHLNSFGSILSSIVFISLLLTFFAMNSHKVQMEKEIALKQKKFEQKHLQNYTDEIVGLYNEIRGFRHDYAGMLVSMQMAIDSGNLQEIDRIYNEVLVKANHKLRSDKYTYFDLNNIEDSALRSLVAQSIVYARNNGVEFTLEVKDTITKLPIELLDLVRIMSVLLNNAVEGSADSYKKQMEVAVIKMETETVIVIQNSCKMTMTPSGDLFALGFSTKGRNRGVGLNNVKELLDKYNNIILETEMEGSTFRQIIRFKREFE
Sequence of ComD1 receptor (A0A0H2ZM50 entry or part of it): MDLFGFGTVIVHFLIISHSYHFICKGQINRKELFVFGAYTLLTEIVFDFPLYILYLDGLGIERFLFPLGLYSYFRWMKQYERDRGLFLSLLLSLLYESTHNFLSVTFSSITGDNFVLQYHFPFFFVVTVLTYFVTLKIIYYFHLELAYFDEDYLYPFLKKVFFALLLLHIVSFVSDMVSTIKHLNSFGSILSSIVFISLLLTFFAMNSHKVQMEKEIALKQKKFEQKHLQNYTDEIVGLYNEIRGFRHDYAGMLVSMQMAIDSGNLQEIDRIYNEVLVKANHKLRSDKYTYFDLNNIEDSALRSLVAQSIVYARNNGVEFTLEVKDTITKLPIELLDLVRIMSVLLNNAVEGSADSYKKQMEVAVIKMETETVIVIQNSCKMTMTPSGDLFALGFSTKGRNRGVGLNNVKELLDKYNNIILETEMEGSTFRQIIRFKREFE

Compound | EC50 [1] [nM] | EC50 [2] [nM] | ComD2 primary agonism screening: low induction, EC50 not determined ([2]; TIGR4pcomX::lacZ, 10 µM peptide, only analogs with greater than 75% activation compared to CSP2 were taken to EC50) | EC50 of activation of pcomX::lacZ (β-galactosidase) in reporter strain D39pcomX::lacZ (group I, ComD1) [3] [nM]
CC[C@H](C)[C@H](NC(=O)[C@H](Cc1ccccc1)NC(=O)[C@H](CC(=O)O)NC(=O)[C@H](CCCNC(=N)N)NC(=O)[C@H](Cc1ccccc1)NC(=O)[C@@H](NC(=O)[C@H](CCCCN)NC(=O)[C@H](CO)NC(=O)[C@H](CC(C)C)NC(=O)[C@H](CCCNC(=N)N)NC(=O)[C@H](CCSC)NC(=O)[C@@H](N)CCC(=O)O)c1ccccc1)C(=O)N[C@@H](CC(C)C)C(=O)N[C@@H](CCC(N)=O)C(=O)N[C@@H](CCCNC(=N)N)C(=O)N[C@@H](CCCCN)C(=O)N[C@@H](CCCCN)C(=O)O [CSP1-F7FG] (H-EMRLSK[Phg]FRDFILQRKK-OH; N-terminus assumed) | 81.3 | 828 |  | 
CC[C@H](C)[C@H](NC(=O)[C@H](Cc1ccccc1)NC(=O)[C@H](CC(=O)O)NC(=O)[C@H](CCCNC(=N)N)NC(=O)[C@H](Cc1ccccc1)NC(=O)[C@H](CCc1ccccc1)NC(=O)[C@H](CCCCN)NC(=O)[C@H](CO)NC(=O)[C@H](CC(C)C)NC(=O)[C@H](CCCNC(=N)N)NC(=O)[C@H](CCSC)NC(=O)[C@@H](N)CCC(=O)O)C(=O)N[C@@H](CC(C)C)C(=O)N[C@@H](CCC(N)=O)C(=O)N[C@@H](CCCNC(=N)N)C(=O)N[C@@H](CCCCN)C(=O)N[C@@H](CCCCN)C(=O)O [CSP1-F7HF] | 81.7 | 317 |  | 
CC[C@H](C)[C@H](NC(=O)[C@H](Cc1ccccc1)NC(=O)[C@H](CC(=O)O)NC(=O)[C@H](CCCNC(=N)N)NC(=O)[C@@H](NC(=O)[C@H](Cc1ccccc1)NC(=O)[C@H](CCCCN)NC(=O)[C@H](CO)NC(=O)[C@H](CC(C)C)NC(=O)[C@H](CCCNC(=N)N)NC(=O)[C@H](CCSC)NC(=O)[C@@H](N)CCC(=O)O)c1ccccc1)C(=O)N[C@@H](CC(C)C)C(=O)N[C@@H](CCC(N)=O)C(=O)N[C@@H](CCCNC(=N)N)C(=O)N[C@@H](CCCCN)C(=O)N[C@@H](CCCCN)C(=O)O [CSP1-F8FG] (H-EMRLSKF[Phg]RDFILQRKK-OH; N-terminus assumed) | 884 |  | –^e | 
CC[C@H](C)[C@H](NC(=O)[C@H](Cc1ccccc1)NC(=O)[C@H](CC(=O)O)NC(=O)[C@H](CCCNC(=N)N)NC(=O)[C@H](CCc1ccccc1)NC(=O)[C@H](Cc1ccccc1)NC(=O)[C@H](CCCCN)NC(=O)[C@H](CO)NC(=O)[C@H](CC(C)C)NC(=O)[C@H](CCCNC(=N)N)NC(=O)[C@H](CCSC)NC(=O)[C@@H](N)CCC(=O)O)C(=O)N[C@@H](CC(C)C)C(=O)N[C@@H](CCC(N)=O)C(=O)N[C@@H](CCCNC(=N)N)C(=O)N[C@@H](CCCCN)C(=O)N[C@@H](CCCCN)C(=O)O [CSP1-F8HF] | 43.4 | > 1000 |  | 
CC[C@H](C)[C@H](NC(=O)[C@@H](NC(=O)[C@H](CC(=O)O)NC(=O)[C@H](CCCNC(=N)N)NC(=O)[C@H](Cc1ccccc1)NC(=O)[C@H](Cc1ccccc1)NC(=O)[C@H](CCCCN)NC(=O)[C@H](CO)NC(=O)[C@H](CC(C)C)NC(=O)[C@H](CCCNC(=N)N)NC(=O)[C@H](CCSC)NC(=O)[C@@H](N)CCC(=O)O)c1ccccc1)C(=O)N[C@@H](CC(C)C)C(=O)N[C@@H](CCC(N)=O)C(=O)N[C@@H](CCCNC(=N)N)C(=O)N[C@@H](CCCCN)C(=O)N[C@@H](CCCCN)C(=O)O [CSP1-F11FG] (H-EMRLSKFFRD[Phg]ILQRKK-OH; N-terminus assumed) | > 1000 | > 1000 |  | 
CC[C@H](C)[C@H](NC(=O)[C@H](CCc1ccccc1)NC(=O)[C@H](CC(=O)O)NC(=O)[C@H](CCCNC(=N)N)NC(=O)[C@H](Cc1ccccc1)NC(=O)[C@H](Cc1ccccc1)NC(=O)[C@H](CCCCN)NC(=O)[C@H](CO)NC(=O)[C@H](CC(C)C)NC(=O)[C@H](CCCNC(=N)N)NC(=O)[C@H](CCSC)NC(=O)[C@@H](N)CCC(=O)O)C(=O)N[C@@H](CC(C)C)C(=O)N[C@@H](CCC(N)=O)C(=O)N[C@@H](CCCNC(=N)N)C(=O)N[C@@H](CCCCN)C(=O)N[C@@H](CCCCN)C(=O)O [CSP1-F11HF] | 65.8 | > 1000 |  | 
CCCC[C@H](NC(=O)[C@H](Cc1ccccc1)NC(=O)[C@H](CC(=O)O)NC(=O)[C@H](CCCNC(=N)N)NC(=O)[C@H](Cc1ccccc1)NC(=O)[C@H](Cc1ccccc1)NC(=O)[C@H](CCCCN)NC(=O)[C@H](CO)NC(=O)[C@H](CC(C)C)NC(=O)[C@H](CCCNC(=N)N)NC(=O)[C@H](CCSC)NC(=O)[C@@H](N)CCC(=O)O)C(=O)N[C@@H](CC(C)C)C(=O)N[C@@H](CCC(N)=O)C(=O)N[C@@H](CCCNC(=N)N)C(=O)N[C@@H](CCCCN)C(=O)N[C@@H](CCCCN)C(=O)O [CSP1-I12NL] (H-EMRLSKFFRDF[Nle]LQRKK-OH; N-terminus assumed) | 6.68 | > 1000 |  | 
CCC[C@H](NC(=O)[C@H](Cc1ccccc1)NC(=O)[C@H](CC(=O)O)NC(=O)[C@H](CCCNC(=N)N)NC(=O)[C@H](Cc1ccccc1)NC(=O)[C@H](Cc1ccccc1)NC(=O)[C@H](CCCCN)NC(=O)[C@H](CO)NC(=O)[C@H](CC(C)C)NC(=O)[C@H](CCCNC(=N)N)NC(=O)[C@H](CCSC)NC(=O)[C@@H](N)CCC(=O)O)C(=O)N[C@@H](CC(C)C)C(=O)N[C@@H](CCC(N)=O)C(=O)N[C@@H](CCCNC(=N)N)C(=O)N[C@@H](CCCCN)C(=O)N[C@@H](CCCCN)C(=O)O [CSP1-I12NV] (H-EMRLSKFFRDF[Nva]LQRKK-OH; N-terminus assumed) | 13.8 | 853 |  | 
CCCC[C@H](NC(=O)[C@H](CCCNC(=N)N)NC(=O)[C@H](CCSC)NC(=O)[C@@H](N)CCC(=O)O)C(=O)N[C@@H](CO)C(=O)N[C@@H](CCCCN)C(=O)N[C@@H](Cc1ccccc1)C(=O)N[C@@H](Cc1ccccc1)C(=O)N[C@@H](CCCNC(=N)N)C(=O)N[C@@H](CC(=O)O)C(=O)N[C@@H](Cc1ccccc1)C(=O)N[C@H](C(=O)N[C@@H](CC(C)C)C(=O)N[C@@H](CCC(N)=O)C(=O)N[C@@H](CCCNC(=N)N)C(=O)N[C@@H](CCCCN)C(=O)N[C@@H](CCCCN)C(=O)O)[C@@H](C)CC [CSP1-L4NL] | 13.5 | > 1000 |  | 
CCC[C@H](NC(=O)[C@H](CCCNC(=N)N)NC(=O)[C@H](CCSC)NC(=O)[C@@H](N)CCC(=O)O)C(=O)N[C@@H](CO)C(=O)N[C@@H](CCCCN)C(=O)N[C@@H](Cc1ccccc1)C(=O)N[C@@H](Cc1ccccc1)C(=O)N[C@@H](CCCNC(=N)N)C(=O)N[C@@H](CC(=O)O)C(=O)N[C@@H](Cc1ccccc1)C(=O)N[C@H](C(=O)N[C@@H](CC(C)C)C(=O)N[C@@H](CCC(N)=O)C(=O)N[C@@H](CCCNC(=N)N)C(=O)N[C@@H](CCCCN)C(=O)N[C@@H](CCCCN)C(=O)O)[C@@H](C)CC [CSP1-L4NV] (H-EMR[Nva]SKFFRDFILQRKK-OH; N-terminus assumed) | 5.74 | 627 |  | 
CSP1-F7Y (peptide) |  |  |  | 344
CSP1-F8FG (peptide) |  |  |  | 884
CSP1-F8Y (peptide) |  |  |  | 85
CSP1-F11Y (peptide) |  |  |  | 95.6
CSP1-I12V (peptide) |  |  |  | 15.3
CSP1-L4V (peptide) |  |  |  | 113
CSP1-L13V (peptide) |  |  |  | 31
competence stimulating peptide 1 (CSP1) (from UniProt P60242 25-41) |  |  |  | 10.3
